Read-outs that look alike come from different tables or passages of the source.
Experiments:
[1] = test system: Trypanosoma cruzi, Tulahuen CL2, beta-galactosidase strain; assay: microbe, parasite or virus in culture; settings: MRC5, read-out: T. cruzi Tulahuen C4 (LacZ) IC50
[2] = test system: Leishmania infantum MHOM/MA(BE)/67/ITMAP263 intracellular amastigotes; assay: microbe, parasite or virus in culture; settings: Macrophage, in Mus musculus
physchem = settings: HPLC, Ascentis Express RP Amide column, pH 7.4, eLogD, experimental
[3] = test system: primary peritoneal mouse macrophages (PMM); assay: cells; settings: Macrophage, read-out: PMM IC50
in vitro [4] = settings: PAMPA
in vitro [5] = settings: human
in vitro [6] = settings: human, microsomes, pH 7.4, HLM CLint, human liver microsomes
in vitro [7] = settings: mouse, microsomes, pH 7.4, MLM CLint, mouse liver microsomes
[8] = read-out: L. Inf. pIC50, from L. infantum intracellular amastigote IC50 (converted)
[9] = read-out: L. infantum MHOM/MA(BE)/67/ITMAP263 intracellular amastigotes IC50, intracellular amastigotes

SMILES	IC50 [1] [µM]	IC50 [2, 8] [µM]	IC50 [2, 9] [µM]	chromatographic logD (physchem)	IC50 [3] [µM]	Papp (in vitro [4]) [×10⁻⁶ cm/s]	CC50 at 3 days (in vitro [5]) [µM]	microsomal CLint at 0.5 μM (in vitro [6]) [µL/min/mg]	microsomal CLint at 0.5 μM (in vitro [7]) [µL/min/mg]
COc1ccc(OC)c(S(=O)(=O)N(CCN2CCOCC2)Cc2ccccc2)c1 [DNDI0003368294]	> 64	9.12	9.06	3.4	> 64	5.27	> 64	227	
CCOCCOc1ncccc1S(=O)(=O)NCc1ccc(F)cc1 [DNDI0003369119]	> 64	33.1	33.3	3.2	> 64	23.8	> 64	2210	1530
COc1ncccc1S(=O)(=O)N(Cc1ccc(F)cc1)Cc1ccccn1 [DNDI0003370084]	33.6	7.41	7.39	3.5	> 64	27.4	> 64	696	4620
CNC(=O)c1ccc(OC)c(S(=O)(=O)N(Cc2ccccc2)Cc2ccccc2)c1 [DNDI0003368298]	> 64	0.708	0.71	3.8	50.8	10.4	4.87	316	
COc1ccc(C#N)cc1S(=O)(=O)N(Cc1ccc(F)cc1)Cc1ccccn1 [DNDI0003370083]	28.9	3.16	3.19	3.6	> 64	11.9	> 64	694	1840
CCCCOc1ncccc1S(=O)(=O)NCc1ccc(F)cc1 [DNDI0003368396]	29.6	8.71	8.73	3.8	> 64	14.9	> 64	1650	
COc1ccc(OC)c(S(=O)(=O)N(CCn2nc(C)cc2C)Cc2ccccc2)c1 [DNDI0003367308]	8.09	6.17	6.23	4.1	> 64	10.9	51	2270	3100
CN(C)CCN(Cc1ccccc1)S(=O)(=O)c1ccc(N2C(=O)CCC2=O)cc1 [DNDI0003368291]	> 64	> 64	> 64	2.5	> 64	1.64	> 64	< 23	
COc1ccc(OC)c(S(=O)(=O)N(Cc2ccccc2)C2CCCN(C(C)=O)C2)c1 (centres unmarked) [DNDI0003367307]	54.3	> 64	> 64	3.3	> 64	16.4	> 64		
C=C(c1ccc(F)cc1)N(Cc1ccccc1)S(=O)(=O)c1cc(Cl)ccc1O [DNDI0003371156]	2.26	7.41	7.44	5.1	8	1.41	3.61		
COc1ccc(CN2CCOCC2)cc1S(=O)(=O)N(Cc1ccc(F)cc1)Cc1ccc(F)cc1 [DNDI0003370082]	1.56	0.525	0.52		> 64	0.74	> 64	49	3200
O=S(=O)(NC(CO)Cc1ccccc1)c1cc(F)ccc1F (centres unmarked) [DNDI0003368459]	> 64	> 64	> 64	2.8	> 64	10.6	> 64	42	274
CN(C)CCN(Cc1ccccc1)S(=O)(=O)c1ccc(N)cc1 [DNDI0003368290]	> 64	> 64	> 64	2.5	> 64	0.88	> 64	56	
COC(=O)[C@H](CO)NS(=O)(=O)c1cc(Cl)ccc1OC [DNDI0003369004]	> 64	> 64	> 64	1.8	> 64	9.07	> 64	112	230
O=S(=O)(c1ccccc1Br)N(Cc1ccccc1)C(CO)Cc1ccccc1 (centres unmarked) [DNDI0003369450]	5.54	> 64	> 64	4.6	> 64	2.82	21.3	1560	2180
O=C(CN(Cc1ccccc1)S(=O)(=O)c1cc(F)ccc1F)c1ccc(F)cc1 [DNDI0003371157]	> 64	> 64	> 64	4.6	> 64	0.83	> 64	756	1380
COc1ccc(S(=O)(=O)N(Cc2ccccc2)Cc2ccccc2)cc1 [DNDI0003367309]	> 64	45.7	45.4		> 64	1	> 64	184	2410
CN(C)CCN(Cc1ccccc1)S(=O)(=O)c1ccc(NC(=O)CCCO)cc1 [DNDI0003368293]	> 64	> 64	> 64	2.9	> 64	0.21	> 64	< 23	
CN(C)CCOc1ccc(F)cc1S(=O)(=O)N(Cc1ccc(F)cc1)Cc1ccc(F)cc1 [DNDI0003371161]	2.17	2.19	2.19	4.9	8	0.06	7.62	214	845
O=S(=O)(NCc1ccc(F)cc1)c1cccnc1NCCN1CCOCC1 [DNDI0003369121]	> 64	> 64	> 64	3.1	> 64	1.85	> 64	1850	1950
COC(=O)C(Cc1ccccc1)NS(=O)(=O)c1ccccc1Br (centres unmarked) [DNDI0003369003]	58	> 64	> 64	3.4	> 64	20.4	> 64		
O=S(=O)(NCc1ccc(F)cc1)c1cccnc1OCc1ccccc1 [DNDI0003369120]	12.7	8.51	8.42	4	32	12.8	20.2	2740	2750
O=S(=O)(c1cc(F)ccc1F)N(Cc1ccccc1)C(CO)CO [DNDI0003369448]	31.6	57.5	57	2.9	> 64	11.2	> 64	< 23	97
O=S(=O)(NC(CO)Cc1ccccc1)c1ccccc1Br (centres unmarked) [DNDI0003369449]	33.4	> 64	> 64	3	> 64	17.4	> 64	244	1370
O=S(=O)(c1cc(F)ccc1F)N(CCO)Cc1ccccc1 [DNDI0003368289]	47.2	> 64	> 64	3.2	> 64	15.7	> 64	< 23	
COc1ccc(OC)c(S(=O)(=O)N(Cc2ccc(F)cc2)Cc2ccccn2)c1 [DNDI0003368394]	20.9	0.977	0.97	2.7	> 64	60.1	> 64	151	344
O=S1(=O)NC(Cc2ccccc2)COc2ccc(F)cc21 (centres unmarked) [DNDI0003368460]	> 64	> 64	> 64	3.3	> 64	26.2	> 64		
COc1ccc(Cl)cc1S(=O)(=O)N(CC(=O)c1ccc(F)cc1)Cc1ccccc1 [DNDI0003371155]	> 64	41.7	41.8	4.8	45.2	0.24	> 64		1900
COc1ccc(C(=O)N2CCCC2)cc1S(=O)(=O)N(Cc1ccccc1)Cc1ccccc1 [DNDI0003368297]	> 64	0.49	0.48	4.1	32	4.91	> 64	796	

— paper PMC8126888 (RSC Medicinal Chemistry, 2020)
